Results from PMC13198257, “An aerosolized dual-action autotaxin inhibitor-PPARγ agonist for the treatment of pulmonary fibrosis” (Cell Reports Medicine, 2026).

System: lung gene expression
Assay: RNA sequencing of lung tissue (BLM/EL244 vs BLM)
Assay type: in vivo, mouse
Method: RNA quality was assessed using an Agilent TapeStation 4150 with the High Sensitivity […] ScreenTape (Agilent), according to the manufacturer’s protocols. For library preparation, the QuantSeq 3’mRNA-Seq Library Prep Kit (Lexogen) was used according to manufacturer’s instructions. Briefly, 500 ng of RNA from each sample was used for first-strand synthesis, followed by RNA template removal, and second-strand synthesis initiated by random primers. In-line barcodes were introduced at this step, and this was followed by magnetic bead-based purification. The resulting libraries were amplified for 15 cycles and re-purified, with quantity and quality assessed on a Qubit 4 Fluorometer with the Invitrogen Qubit dsDNA HS Assay and an Agilent Tapestation 4150 with the High Sensitivity D1000 assay kit, respectively. The quantified libraries were pooled equimolarly; 50ng of total library mix was used for Adapter Conversion PCR Amplification using the Universal Library Conversion Kit (App-A), Version: V1.0 (MGI Tech Co., Ltd.), according to the manufacturer’s instructions.
The quantity and quality of the purified adapter conversion PCR (AC-PCR) product were evaluated on a Qubit 4 Fluorometer with the Invitrogen Qubit dsDNA HS Assay and on an Agilent Tapestation 4150 with the High Sensitivity D1000 assay kit, respectively. This was followed by DNA denaturation, Single-Strand Circularisation, Enzymatic Digestion, Enzymatic Digestion Product Cleanup and Quality Control steps on 1 pmol of AC-PCR product, according to the Universal Library Conversion Kit (App-A) User Manual (Version: A3).
Finally, 60 fmol of ssCirDNA were used for DNB preparation and sequencing on a DNBSEQ-G400 platform at the BSRC Alexander Fleming Genomics Facility, using a G400 App-A FCS SE100 High-throughput Sequencing Set (MGI Tech Co., Ltd.), according to the manufacturer’s instructions.
Alignment of the FASTQ files was performed against the mouse genome build mm10 using a custom Bash script.[143] Read counting on the 3′ UTRs and differential expression analysis were conducted using the metaseqR2 bioconductor package.[144] Genes corresponding to the following biotypes were excluded: polymorphic_pseudogene, processed_transcript, pseudogene, IG_V_pseudogene, misc_RNA, IG_C_gene, IG_J_gene, IG_D_gene, IG_LV_gene, TR_V_gene, TR_V_pseudogene, TEC, and processed_pseudogene. Gene counts were normalized with DESEQ[145] through metaseqR2. Genes with more than 10 counts in at least 50% of the samples were kept for further processing. For differential expression analysis, the PANDORA algorithm[146] was used to estimate a meta p-value integrating the results from the DESEQ, DESEQ2,[147] edgeR,[148] limma,[149] NBPSeq,[150] and NOISeq[151] algorithms. All additional parameters were set to default values.
Pathway enrichment analysis was performed for the Gene Ontology Biological process (BP) and Molecular Function (MF) terms through GeneCodis 4.[152] The volcano plots, scatterplots, Venn diagrams, and dot plots were generated using the ggplot2 Bioconductor package.

[1] = lung tissue of BLM-treated mice, BLM/EL244 vs BLM

## O=C1NC(=O)C(Cc2ccc(OCCC3CCN(C(=O)OCc4cc(Cl)cc(Cl)c4)CC3)cc2)S1 (stereo not shown) [EL244, 3,5-dichlorobenzyl 4-(2-(4-((2,4-dioxothiazolidin-5-yl)methyl)phenoxy)ethyl)piperidine-1-carboxylate]
DEG Rora, nFC: normalised fold change
  Rora log2 nFC BLM/EL244 vs BLM: 0.80
DEG Rrm2
  log2 nFC BLM/EL244 vs BLM: -2.56
DEG Ryr2, nFC: normalised fold change
  Ryr2 log2 nFC BLM/EL244 vs BLM: 2.14
DEG S1pr4, nFC: normalised fold change
  S1pr4 log2 nFC BLM/EL244 vs BLM: 0.94
DEG S1pr5, nFC: normalised fold change
  S1pr5 log2 nFC BLM/EL244 vs BLM: 1.64
DEG S100a4
  log2 nFC BLM/EL244 vs BLM: -1.26
DEG S100a8, nFC: normalised fold change
  S100a8 log2 nFC BLM/EL244 vs BLM: 1.52
DEG S100a9, nFC: normalised fold change
  S100a9 log2 nFC BLM/EL244 vs BLM: 2.11
DEG S100a14
  log2 nFC BLM/EL244 vs BLM: -1.28
DEG Scn3a, nFC: normalised fold change
  Scn3a log2 nFC BLM/EL244 vs BLM: 0.75
DEG Scube2, nFC: normalised fold change
  Scube2 log2 nFC BLM/EL244 vs BLM: 0.74
DEG Sec14l3, nFC: normalised fold change
  Sec14l3 log2 nFC BLM/EL244 vs BLM: 0.69
DEG Sec14l4, nFC: normalised fold change
  Sec14l4 log2 nFC BLM/EL244 vs BLM: 0.77
DEG Sell, nFC: normalised fold change
  Sell log2 nFC BLM/EL244 vs BLM: 1.03
DEG Sema3g, nFC: normalised fold change
  Sema3g log2 nFC BLM/EL244 vs BLM: 0.78
DEG Serpina3g
  log2 nFC BLM/EL244 vs BLM: -1.31
DEG Sftpa1, nFC: normalised fold change
  Sftpa1 log2 nFC BLM/EL244 vs BLM: 0.70
DEG Sgip1, nFC: normalised fold change
  Sgip1 log2 nFC BLM/EL244 vs BLM: 0.90
DEG Sgms1, nFC: normalised fold change
  Sgms1 log2 nFC BLM/EL244 vs BLM: 0.71
DEG Ska1
  log2 nFC BLM/EL244 vs BLM: -2.52
DEG Slamf8
  log2 nFC BLM/EL244 vs BLM: -1.24
DEG Slc2a4rg-ps, nFC: normalised fold change
  Slc2a4rg-ps log2 nFC BLM/EL244 vs BLM: 0.85
DEG Slc7a10, nFC: normalised fold change
  Slc7a10 log2 nFC BLM/EL244 vs BLM: 0.97
DEG Slc7a11
  log2 nFC BLM/EL244 vs BLM: -1.50
DEG Slc16a11, nFC: normalised fold change
  Slc16a11 log2 nFC BLM/EL244 vs BLM: 0.79
DEG Slc38a4, nFC: normalised fold change
  Slc38a4 log2 nFC BLM/EL244 vs BLM: 1.12
DEG Slc43a3, nFC: normalised fold change
  Slc43a3 log2 nFC BLM/EL244 vs BLM: 0.73
DEG Sln, nFC: normalised fold change
  Sln log2 nFC BLM/EL244 vs BLM: 2.01
DEG Smad6, nFC: normalised fold change
  Smad6 log2 nFC BLM/EL244 vs BLM: 1.18
DEG Smpx, nFC: normalised fold change
  Smpx log2 nFC BLM/EL244 vs BLM: 2.34
DEG Smyd1, nFC: normalised fold change
  Smyd1 log2 nFC BLM/EL244 vs BLM: 1.73
DEG Snhg11, nFC: normalised fold change
  Snhg11 log2 nFC BLM/EL244 vs BLM: 1.40
DEG Sntb1, nFC: normalised fold change
  Sntb1 log2 nFC BLM/EL244 vs BLM: 0.72
DEG Snx21, nFC: normalised fold change
  Snx21 log2 nFC BLM/EL244 vs BLM: 1.15
DEG Sorbs1, nFC: normalised fold change
  Sorbs1 log2 nFC BLM/EL244 vs BLM: 0.70
DEG Sorbs3, nFC: normalised fold change
  Sorbs3 log2 nFC BLM/EL244 vs BLM: 0.80
DEG Sox9
  log2 nFC BLM/EL244 vs BLM: -1.42
DEG Spp1
  log2 nFC BLM/EL244 vs BLM: -1.50
DEG Srcin1, nFC: normalised fold change
  Srcin1 log2 nFC BLM/EL244 vs BLM: 0.91
DEG Syne1, nFC: normalised fold change
  Syne1 log2 nFC BLM/EL244 vs BLM: 0.70
DEG Synm, nFC: normalised fold change
  Synm log2 nFC BLM/EL244 vs BLM: 0.84
DEG Tacc3
  log2 nFC BLM/EL244 vs BLM: -1.27
DEG Tbata, nFC: normalised fold change
  Tbata log2 nFC BLM/EL244 vs BLM: 1.72
DEG Tbkbp1, nFC: normalised fold change
  Tbkbp1 log2 nFC BLM/EL244 vs BLM: 0.71
DEG Tcap, nFC: normalised fold change
  Tcap log2 nFC BLM/EL244 vs BLM: 1.73
DEG Tcf19
  log2 nFC BLM/EL244 vs BLM: -1.42
DEG Tex11, nFC: normalised fold change
  Tex11 log2 nFC BLM/EL244 vs BLM: 1.83
DEG Tgfbr3, nFC: normalised fold change
  Tgfbr3 log2 nFC BLM/EL244 vs BLM: 0.83
DEG Tmem100, nFC: normalised fold change
  Tmem100 log2 nFC BLM/EL244 vs BLM: 0.82
DEG Tmem182, nFC: normalised fold change
  Tmem182 log2 nFC BLM/EL244 vs BLM: 2.26
DEG Tmem132d, nFC: normalised fold change
  Tmem132d log2 nFC BLM/EL244 vs BLM: 2.38
DEG Tnip3
  log2 nFC BLM/EL244 vs BLM: -1.47
DEG Tnnc1, nFC: normalised fold change
  Tnnc1 log2 nFC BLM/EL244 vs BLM: 2.18
DEG Tnni3, nFC: normalised fold change
  Tnni3 log2 nFC BLM/EL244 vs BLM: 2.31
DEG Tnnt2, nFC: normalised fold change
  Tnnt2 log2 nFC BLM/EL244 vs BLM: 1.77
DEG Tns2, nFC: normalised fold change
  Tns2 log2 nFC BLM/EL244 vs BLM: 0.77
DEG Tppp3, nFC: normalised fold change
  Tppp3 log2 nFC BLM/EL244 vs BLM: 0.77
DEG Trem2
  log2 nFC BLM/EL244 vs BLM: -1.42
DEG Trip13
  log2 nFC BLM/EL244 vs BLM: -1.42
DEG Ttn, nFC: normalised fold change
  Ttn log2 nFC BLM/EL244 vs BLM: 2.53
DEG Unc45b, nFC: normalised fold change
  Unc45b log2 nFC BLM/EL244 vs BLM: 0.77
DEG Upk3b, nFC: normalised fold change
  Upk3b log2 nFC BLM/EL244 vs BLM: 1.53
DEG Vpreb3, nFC: normalised fold change
  Vpreb3 log2 nFC BLM/EL244 vs BLM: 0.71
DEG Vwa3b, nFC: normalised fold change
  Vwa3b log2 nFC BLM/EL244 vs BLM: 0.98
DEG Wfdc17
  log2 nFC BLM/EL244 vs BLM: -1.30
DEG Xndc1, nFC: normalised fold change
  Xndc1 log2 nFC BLM/EL244 vs BLM: 1.14
DEG Zmynd10, nFC: normalised fold change
  Zmynd10 log2 nFC BLM/EL244 vs BLM: 1.28
DEG Zranb3
  log2 nFC BLM/EL244 vs BLM: -1.43
DEG Zwilch
  log2 nFC BLM/EL244 vs BLM: -1.54
[1]
  1810010H24Rik log2 nFC: 0.90
  1810010H24Rik nFC: 1.87
  Abca8a log2 nFC: 0.75
  Abca8a nFC: 1.68
  Abi3bp log2 nFC: 1.00
  Abi3bp nFC: 2.00
  Acbd4 log2 nFC: 0.86
  Acbd4 nFC: 1.81
  Adgrf5 log2 nFC: 0.68
  Adgrf5 nFC: 1.60
  Adh7 log2 nFC: 1.02
  Adh7 nFC: 2.02
  Aldh1a1 log2 nFC: 0.78
  Aldh1a1 nFC: 1.71
  Ankrd44 log2 nFC: 0.84
  Ankrd44 nFC: 1.79
  Aox3 log2 nFC: 1.07
  Aox3 nFC: 2.09
  Ar log2 nFC: 1.04
  Ar nFC: 2.06
  Arhgef28 log2 nFC: 0.76
  Arhgef28 nFC: 1.70
  Arhgef38 log2 nFC: 0.87
  Arhgef38 nFC: 1.83
  Arl4a log2 nFC: 0.70
  Arl4a nFC: 1.63
  Atp2a3 log2 nFC: 0.83
  Atp2a3 nFC: 1.77
  Atp6v1c2 log2 nFC: 1.03
  Atp6v1c2 nFC: 2.04
  Atp7b log2 nFC: 0.95
  Atp7b nFC: 1.93
  Bcar3 log2 nFC: 0.82
  Bcar3 nFC: 1.76
  Bmp6 log2 nFC: 1.07
  Bmp6 nFC: 2.10
  Cbr2 log2 nFC: 0.91
  Cbr2 nFC: 1.88
  Ccdc153 log2 nFC: 0.79
  Ccdc153 nFC: 1.73
  Ccdc171 log2 nFC: 1.04
  Ccdc171 nFC: 2.06
  Ccl5 log2 nFC: 0.76
  Ccl5 nFC: 1.69
  Cep85l log2 nFC: 1.02
  Cep85l nFC: 2.03
